Data from patent publication US20220160703A1, “TUMOR-SELECTIVE COMBINATION THERAPY” (The Board of Regents of The University of Texas System, priority 2019, published 2022).

Columns and labels:
IFNα/β = test: Type I IFN and cytokine expression in tumor tissue (ELISA, PCR); type: in vivo, mice; details: MC38-OVA, β-lap 0.3 mg i.t. two times, six days later
Experimental: FIGS. 19A-C (related to FIGS. 4A-F). TLR4/MyD88 pathway but not TLR9 signaling is required for the antitumor effect of β-lap. (FIGS. 19A-B) MC38-OVA bearing mice were treated with β-lap (0.3 mg, i.t.) for two times. Six days later, tumor tissues were collected for both single cell digestion (FIG. 19A) and RNA extraction (FIG. 19B). (FIG. 19A) The secreted IFNβ from the suspended cell supernatant was measured by ELISA after a 24 hr culture. (FIG. 19B) The mRNA levels of IFNα1, IFNγ, TNFα and CXCL10 were determined by real-time PCR assay. (FIG. 19C) MC38 cells were implanted into Myd88^−/−, Tlr4^−/− and Tlr9^−/− C57BL/6 mice, respectively. Tumor bearing mice were then treated with β-lap (0.3 mg, i.t.) every other day for four times. Tumor growth was monitored twice a week. Data are shown as mean±SEM. *P<0.05, **P<0.01, ***P<0.001 determined by unpaired t-test. FIGS. 25A-E. IB-DNQ induces tumor ICD and dendritic cell-mediated T cell cross-priming. (FIG. 25A) The levels of HMGB1 released into cell culture supernatant after IB-DNQ treatment. MC38, MC38 NOQ1^−/−, B16, and B16 NOQ1^+ cells were treated with IB-DNQ for 4 h followed by replacing medium and growth for 24 h, culture supernatant was collected and HMGB1 levels were determined by ELISA. (FIGS. 25B-C) Relative expression of IFN-α and IFN-β. […]

MC38 cells = test: 7-AAD and Annexin V cell death, flow cytometry; type: cell-based, murine; details: lethal dose of β-lap (4 μM)
Experimental: (§1) (FIG. 1A) NQO1 positive tumor cell lines MC38, TC-1 and Ag104Ld and NQO1 negative cell lines Panc02 and B16 grown in 48-well plates were treated with β-lap (0-8 μM) for a 3 hr followed by washing and replacing medium. Cell viability was determined by Sulforhodamine B (SRB) Assay 4 days later. […] (FIG. 1C) MC38 cells with CRISPR-based NQO1 Knockout (MC38 NQO1KO #5) planted in 96-well plates were exposed to β-lap for 3 hr and cell survival was assessed 48 hr later. […] (FIG. 1E) MC38 cells were exposed to a lethal dose of β-lap (4 μM) for indicated times, then stained with 7-AAD and Annexin V followed by flow cytometry analysis. […] (FIG. 1H) MC38 and B16 NQO1 #1 cells were exposed to β-lap for a 3 hr. Catalase (1000 U/ml) was added and cell survival was assessed 48 hr later. (FIG. 1I) C57BL/6 mice (n=5/group) were transplanted with MC38 cells and treated with β-lap (0.03 mg, 0.1 mg or 0.3 mg, intratumorally; or 25 mg/kg, i.v.) every other day for four times. […] Tumor growth was monitored twice a week.
(FIG. 21A) Viability of murine cell lines following IB-DNQ treatment for 4 h. […] (FIGS. 21D-E) DNA double strand break was assessed via comet assay (FIG. 21D) and γH2AX foci/nuclei immunofluorescence (FIG. 21E). (FIG. 21F) MC38 cell death after a 4 h exposure to IB-DNQ was determined by 7AAD and Annexin V staining using flow cytometry analysis.

[1] = tested on: MC38 cells with CRISPR-based NQO1 Knockout; test: Cell survival of NQO1 knockout MC38 cells; type: cell-based, murine; details: 3 hr exposure, survival 48 hr later
Experimental: as §1, with “later.” for “later. (FIG. 1I) C57BL/6 mice (n=5/group) were transplanted with MC38 cells and treated with β-lap (0.03 mg, 0.1 mg or 0.3 mg, intratumorally; or 25 mg/kg, i.v.) every other day for four times.”
FIGS. 17A-I (related to FIGS. 1A-J). […] (FIG. 17A) NQO1 expression in different murine cancer cell lines was determined by western blotting assay. […] Cell viability was determined by Sulforhodamine B (SRB) Assay 48 hr later. […] Cell viability was determined by SRB Assay 48 hr later. […] Catalase (1000 U/ml) was added and cell viability was assessed 48 hr later. […] Tumor growth was monitored twice a week. […] Data are shown as mean±SEM. **P<0.01, ***P<0.001, ****P<0.0001 determined by unpaired student t-test (FIG. 17G) or two-way ANOVA (FIG. 17H and FIG. 17I). […]

[2] = Methemoglobinemia and weight loss; type: in vivo; details: MC38 tumor bearing mice, 10 Gy + β-lap

CC1(C)CCC2=C(O1)c1ccccc1C(=O)C2=O [β-lap, β-lapachone]
IFNα/β, CXCL10, IFNγ and TNFα in treated tumors (IFNα/β): upregulated | mode of cell death (MC38 cells): rapid cell swelling, membrane rupture and Annexin V+/7AAD+ cell death without caspase activation | response to β-lap (cell survival) [1]: resistance to β-lap treatment | methemoglobinemia or weight loss [2]: no significant methemoglobinemia or weight loss
